What follows are compounds tested against T1, human OX1 receptor (Homo sapiens, UniProt O43613) (assay: FLIPR measurement of intracellular calcium, antagonistic activity at OX1). Settings: pKb OX1, CHO cells with human recombinant OX1, activated with orexin-A 3 nM; 1 nM-1 μM range; modified Cheng Prusoff.
T1 sequence (O43613 1-425): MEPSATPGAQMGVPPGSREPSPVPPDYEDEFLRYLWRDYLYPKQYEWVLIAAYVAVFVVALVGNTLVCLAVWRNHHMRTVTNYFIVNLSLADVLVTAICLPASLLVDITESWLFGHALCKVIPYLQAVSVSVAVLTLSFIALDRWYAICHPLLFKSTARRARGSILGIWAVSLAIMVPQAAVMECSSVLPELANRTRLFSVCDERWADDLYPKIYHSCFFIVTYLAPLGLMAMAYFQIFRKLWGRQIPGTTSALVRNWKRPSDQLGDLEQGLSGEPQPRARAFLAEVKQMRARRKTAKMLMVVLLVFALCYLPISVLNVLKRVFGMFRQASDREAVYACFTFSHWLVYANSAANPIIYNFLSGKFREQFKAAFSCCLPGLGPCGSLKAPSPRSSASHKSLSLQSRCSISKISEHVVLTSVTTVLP
Description: Thus the plate was loaded with the calcium dye (Fluo-4NW/probenecid in HBSS, Hepes 20 mM, pH 7,4; Invitrogen) at 37° C. for 60 min. Afterward the temperature was equilibrated at 22° C. for 15 min and the [Ca2+]i measured directly on the plate by using a fluorescent plate reader (CeliLux Perkin Elmer).
After 5 min CHO cells were activated with orexin-A, 3 nM while HEK-293 cells were activated with orexin-B, 10 nM.
The antagonistic activity has been expressed as pKb (co-logarithm of the apparent dissociation constant calculated by using the modified Cheng Prusoff equation).

SMILES | Kb [nM]
Cc1nc(C(=O)N2CCC3(CC3)CC2CNc2ccc(Cl)cn2)c(-c2ccccc2)s1 (racemic) [Compound 4, (±) (5-((5-chloropyridin-2-ylamino)methyl)-6-azaspiro[2.5]octan-6-yl)(2-methyl-5-phenylthiazol-4-yl)methanone] | 25.1
Cc1nc(C(=O)N2CCC3(CC3)CC2CNc2ccc(Cl)cn2)c(-c2ccc(F)cc2)s1 (racemic) [Compound 10, (±) (5-((5-chloropyridin-2-ylamino)methyl)-6-azaspiro[2.5]octan-6-yl)(5-(4-fluorophenyl)-2-methylthiazol-4-yl)methanone] | 39.8
Cc1ccc(-n2nccn2)c(C(=O)N2CCC3(CC3)CC2CNc2ccc(Cl)cn2)c1 (racemic) [Compound 11, (±)(5-((5-chloropyridin-2-ylamino)methyl)-6-azaspiro[2.5]octan-6-yl)(5-methyl-2-(2H-1,2,3-triazol-2-yl)phenyl)methanone] | 31.6
Cc1ccc(-c2ncccn2)c(C(=O)N2CCC3(CC3)CC2CNc2ccc(Cl)cn2)c1 (racemic) [Compound 12, (±)(5-((5-chloropyridin-2-ylamino)methyl)-6-azaspiro[2.5]octan-6-yl)(5-methyl-2-(pyrimidin-2-yl)phenyl)methanone] | 50.1
Cc1cccc(NCC2CC3(CCN2C(=O)c2nc(C)sc2-c2ccccc2)CC3)n1 (single isomer, unassigned) [Compound 3, (2-methyl-5-phenylthiazol-4-yl)(5-((6-methylpyridin-2-ylamino)methyl)-6-azaspiro[2.5]octan-6-yl)methanone] | 39.8
Cc1ccc(-c2ncccn2)c(C(=O)N2CCC3(CC3)C[C@H]2CNc2ccc(Cl)cn2)c1 (single isomer, unassigned) [Compound 13] | 25.1
Cc1nc(C(=O)N2CCC3(CC3)C[C@H]2CNc2ccc(F)cn2)c(-c2ccccc2)s1 [Compound 16, (S)-(5-(((5-fluoropyridin-2-yl)amino)methyl)-6-azaspiro[2.5]octan-6-yl)(2-methyl-5-phenylthiazol-4-yl)methanone] | 63.1
Cc1ccc(-n2nccn2)c(C(=O)N2CCC3(CC3)C[C@H]2CNc2cccc(Cl)n2)c1 [Compound 19, (S)-(5-(((6-chloropyridin-2-yl)amino)methyl)-6-azaspiro[2.5]octan-6-yl)(5-methyl-2-(2H-1,2,3-triazol-2-yl)phenyl)methanone] | 126
Cc1ccc(-n2nccn2)c(C(=O)N2CCC3(CC3)C[C@H]2CNc2cccc(C(F)(F)F)n2)c1 [Compound 20, (S)-(5-methyl-2-(2H-1,2,3-triazol-2-yl)phenyl)(5-(((6-(trifluoromethyl)pyridin-2-yl)amino)methyl)-6-azaspiro[2.5]octan-6-yl)methanone] | 50.1
Cc1ccnc(NC[C@@H]2CC3(CCN2C(=O)c2nc(C)sc2-c2ccccc2)CC3)n1 [Compound 21, (S)-(2-methyl-5-phenylthiazol-4-yl)(5-(((4-methylpyrimidin-2-yl)amino)methyl)-6-azaspiro[2.5]octan-6-yl)methanone] | 126
Cc1cnc(NC[C@@H]2CC3(CCN2C(=O)c2nc(C)sc2-c2ccccc2)CC3)nc1 [Compound 23, (S)-(2-methyl-5-phenylthiazol-4-yl)(5-(((5-methylpyrimidin-2-yl)amino)methyl)-6-azaspiro[2.5]octan-6-yl)methanone] | 50.1
Cc1nc(C(=O)N2CCC3(CC3)C[C@H]2CNc2nc(F)cc(F)n2)c(-c2ccccc2)s1 [Compound 24, (S)-(5-(((4,6-difluoropyrimidin-2-yl)amino)methyl)-6-azaspiro[2.5]octan-6-yl)(2-methyl-5-phenylthiazol-4-yl)methanone] | 100
Cc1nc(C(=O)N2CCC3(CC3)C[C@H]2CNc2cccc(F)n2)c(-c2ccccc2)s1 [Compound 25, (S)-(5-(((6-fluoropyridin-2-yl)amino)methyl)-6-azaspiro[2.5]octan-6-yl)(2-methyl-5-phenylthiazol-4-yl)methanone] | 39.8
Cc1ccc(-n2nccn2)c(C(=O)N2CCC3(CC3)C[C@H]2CNc2ccc(C(F)(F)F)cn2)c1 [Compound 26, (S)-(5-methyl-2-(2H-1,2,3-triazol-2-yl)phenyl)(5-(((5-(trifluoromethyl)pyridin-2-yl)amino)methyl)-6-azaspiro[2.5]octan-6-yl)methanone] | 25.1
Cc1ccc(-c2ncccn2)c(C(=O)N2CCC3(CC3)C[C@H]2CNc2ccc(C(F)(F)F)cn2)c1 [Compound 27, (S)-(5-methyl-2-(pyrimidin-2-yl)phenyl)(5-(((5-(trifluoromethyl)pyridin-2-yl)amino)methyl)-6-azaspiro[2.5]octan-6-yl)methanone] | 12.6
O=C(c1ccccc1-n1nccn1)N1CCC2(CC2)C[C@H]1CNc1ccc(Cl)cn1 [Compound 28, (S)-(2-(2H-1,2,3-triazol-2-yl)phenyl)(5-(((5-chloropyridin-2-yl)amino)methyl)-6-azaspiro[2.5]octan-6-yl)methanone] | 25.1
O=C(c1cc(F)ccc1-n1nccn1)N1CCC2(CC2)C[C@H]1CNc1ccc(Cl)cn1 [Compound 29, (S)-(5-(((5-chloropyridin-2-yl)amino)methyl)-6-azaspiro[2.5]octan-6-yl)(5-fluoro-2-(2H-1,2,3-triazol-2-yl)phenyl)methanone] | 31.6
O=C(c1ccccc1-c1cnccn1)N1CCC2(CC2)C[C@H]1CNc1ccc(Cl)cn1 [Compound 30, (S)-(5-(((5-chloropyridin-2-yl)amino)methyl)-6-azaspiro[2.5]octan-6-yl)(2-(pyrazin-2-yl)phenyl)methanone] | 63.1

More lines, now with the values ahead:

Kb [nM] | SMILES
63.1 | Cc1cccc(NCC2CC3(CCCC3)CCN2C(=O)c2nc(C)sc2-c2ccccc2)n1 (racemic) [Compound 54, (±)(2-methyl-5-phenylthiazol-4-yl)(7-(((6-methylpyridin-2-4amino)methyl)-8-azaspiro[4.5]decan-8-yl)methanone]
39.8 | Cc1nc(C(=O)N2CCC3(CCCC3)CC2CNc2ccc(Cl)cn2)c(-c2ccccc2)s1 (racemic) [Compound 55, (±)(7-(((5-chloropyridin-2-yl)amino)methyl)-8-azaspiro[4.5]decan-8-yl)(2-methyl-5-phenylthiazol-4-yl)methanone]
15.8 | O=C(c1c(F)cccc1-n1nccn1)N1CCC2(CC2)C[C@H]1CNc1ccc(Cl)cn1 [Compound 31, (S)-(5-(((5-chloropyridin-2-yl)amino)methyl)-6-azaspiro[2.5]octan-6-yl)(2-fluoro-6-(2H-1,2,3-triazol-2-yl)phenyl)methanone]
63.1 | O=C(c1cc(F)ccc1-c1ccccn1)N1CCC2(CC2)C[C@H]1CNc1ccc(Cl)cn1 [Compound 32, (S)-(5-(((5-chloropyridin-2-yl)amino)methyl)-6-azaspiro[2.5]octan-6-yl)(5-fluoro-2-(pyridin-2-yl)phenyl)methanone]
1.58 | Cc1ccc(-c2ccccn2)c(C(=O)N2CCC3(CC3)C[C@H]2CNc2ccc(Cl)cn2)c1 [Compound 33, (S)-(5-(((5-chloropyridin-2-yl)amino)methyl)-6-azaspiro[2.5]octan-6-yl)(5-methyl-2-(pyridin-2-yl)phenyl)methanone]
20 | O=C(c1c(F)cccc1-c1ccccn1)N1CCC2(CC2)C[C@H]1CNc1ccc(Cl)cn1 [Compound 34, (S)-(5-(((5-chloropyridin-2-yl)amino)methyl)-6-azaspiro[2.5]octan-6-yl)(2-fluoro-6-(pyridin-2-yl)phenyl)methanone]
20 | O=C(c1ccccc1-c1ccccc1)N1CCC2(CC2)C[C@H]1CNc1ccc(Cl)cn1 [Compound 38, (S)-[1,1′-biphenyl]-2-yl(5-(((5-chloropyridin-2-yl)amino)methyl)-6-azaspiro[2.5]octan-6-yl)methanone]
31.6 | O=C(c1ccccc1-c1ncccn1)N1CCC2(CC2)C[C@H]1CNc1ccc(Cl)cn1 [Compound 40, (S)-(5-(((5-chloropyridin-2-yl)amino)methyl)-6-azaspiro[2.5]octan-6-yl)(2-(pyrimidin-2-yl)phenyl)methanone]
63.1 | Cc1ccc(-c2ncccn2)c(C(=O)N2CCC3(CC3)C[C@H]2CNc2cccc(Cl)n2)c1 [Compound 41, (S)-(5-(((6-chloropyridin-2-yl)amino)methyl)-6-azaspiro[2.5]octan-6-yl)(5-methyl-2-(pyrimidin-2-yl)phenyl)methanone]
25.1 | Cc1ccc(-c2cnccn2)c(C(=O)N2CCC3(CC3)C[C@H]2CNc2cccc(Cl)n2)c1 [Compound 42, (S)-(5-(((6-chloropyridin-2-yl)amino)methyl)-6-azaspiro[2.5]octan-6-yl)(5-methyl-2-(pyrazin-2-yl)phenyl)methanone]
10 | Cc1ccc(-c2cnccn2)c(C(=O)N2CCC3(CC3)C[C@H]2CNc2cccc(C(F)(F)F)n2)c1 [Compound 43, (S)-(5-methyl-2-(pyrazin-2-yl)phenyl)(5-(((6-(trifluoromethyl)pyridin-2-yl)amino)methyl)-6-azaspiro[2.5]octan-6-yl)methanone]
15.8 | O=C(c1cc(F)ccc1-c1ncccn1)N1CCC2(CC2)C[C@H]1CNc1ccc(Cl)cn1 [Compound 44, (S)-(5-(((5-chloropyridin-2-yl)amino)methyl)-6-azaspiro[2.5]octan-6-yl)(5-fluoro-2-(pyrimidin-2-yl)phenyl)methanone]
10 | O=C(c1c(F)cccc1-c1ncccn1)N1CCC2(CC2)C[C@H]1CNc1ccc(Cl)cn1 [Compound 45, (S)-(5-(((5-chloropyridin-2-yl)amino)methyl)-6-azaspiro[2.5]octan-6-yl)(2-fluoro-6-(pyrimidin-2-yl)phenyl)methanone]
